From US20180334436A1 (VIIV HEALTHCARE UK LIMITED, priority 2015, published 2018) come the findings set out here.

By IC50 is commonly meant the concentration that gives 50% inhibition.

The structures appear in SMILES notation.

In the test the test system is HIV. As to the kind of experiment: MT4 assay (anti-HIV activity). In kind it is cell-based. The note with it: Human immunodeficiency virus 1, 96 h, antiviral HIV activity in HTLV-1 transformed cell line MT-4; luciferase read 96 hours later; 10 point dose response. The procedure, abridged:
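MT-4 cells infected with HIV, with inhibition readout by CellTiter-Glo luminescence at 96 h relative to no-compound control. Cytotoxicity measured in parallel under the same conditions. IC50 from a 10-point, 3-4-fold dilution series spanning >1000-fold, fitted with a four-parameter logistic equation.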
Take `Cc1ccc(-c2c(C)c3c(c(C)c2[C@H](OC(C)(C)C)C(=O)O)CCN(C(=O)c2ccncc2)C3)cc1` [Example 44, (S)-2-(tert-butoxy)-2-(2-isonicotinoyl-5,8-dimethyl-7-(p-tolyl)-1,2,3,4-tetrahydroisoquinolin-6-yl)acetic Acid]: the half-maximal inhibitory concentration (IC50) was determined as 1010 nM.

With `Cc1ccc(-c2c(C)c3c(c(C)c2[C@H](OC(C)(C)C)C(=O)O)CCN(S(=O)(=O)C2CCCCC2)C3)cc1` [Example 45, (S)-2-(tert-butoxy)-2-(2-(cyclohexylsulfonyl)-5,8-dimethyl-7-(p-tolyl)-1,2,3,4-tetrahydroisoquinolin-6-yl)acetic Acid], the half-maximal inhibitory concentration (IC50) was 17 nM.

Regarding `Cc1ccc(-c2c(C)c3c(c(C)c2[C@H](OC(C)(C)C)C(=O)O)CCN(C(=O)C(=O)N2CCCCC2)C3)cc1` [Example 46, (S)-2-(tert-butoxy)-2-(5,8-dimethyl-2-(2-oxo-2-(piperidin-1-yl)acetyl)-7-(p-tolyl)-1,2,3,4-tetrahydroisoquinolin-6-yl)acetic Acid], the IC50 came to 276 nM.

In the case of `Cc1ccc(-c2c(C)c3c(c(C)c2[C@H](OC(C)(C)C)C(=O)O)CCN(C(=O)C2CCCCC2)C3)cc1` [Example 47, (S)-2-(tert-butoxy)-2-(2-(cyclohexanecarbonyl)-5,8-dimethyl-7-(p-tolyl)-1,2,3,4-tetrahydroisoquinolin-6-yl)acetic Acid], the half-inhibitory concentration (IC50) was found to be 51 nM.

`Cc1ccc(-c2c(C)c3c(c(C)c2[C@H](OC(C)(C)C)C(=O)O)CCN(C(=O)c2ccccc2)C3)cc1` [Example 48, (S)-2-(2-benzoyl-5,8-dimethyl-7-(p-tolyl)-1,2,3,4-tetrahydroisoquinolin-6-yl)-2-(tert-butoxy)acetic Acid]: the half-inhibitory concentration (IC50) was determined as 325 nM.

Take `Cc1ccc(-c2c(C)c3c(c(C)c2[C@H](OC(C)(C)C)C(=O)O)CCN(C2CC4CCC2C4)C3)cc1` (stereo partly drawn) [Example 49, (2S)-2-(2-(bicyclo[2.2.1]heptan-2-yl)-5,8-dimethyl-7-(p-tolyl)-1,2,3,4-tetrahydroisoquinolin-6-yl)-2-(tert-butoxy)acetic Acid]: the IC50 is 11 nM.

On to `Cc1ccc(-c2c(C)c3c(c(C)c2[C@H](OC(C)(C)C)C(=O)O)CCN(C2CCCCCC2)C3)cc1` [Example 50, (S)-2-(tert-butoxy)-2-(2-cycloheptyl-5,8-dimethyl-7-(p-tolyl)-1,2,3,4-tetrahydroisoquinolin-6-yl)acetic Acid], for which the IC50 was found to be 5 nM.

On to `Cc1ccc(-c2c(C)c3c(c(C)c2[C@H](OC(C)(C)C)C(=O)O)CCN(C2CCC4(CC2)CC4)C3)cc1` [Example 51, (S)-2-(tert-butoxy)-2-(5,8-dimethyl-2-(spiro[2.5]octan-6-yl)-7-(p-tolyl)-1,2,3,4-tetrahydroisoquinolin-6-yl)acetic Acid], for which the concentration for half-maximal inhibition (IC50) worked out at 11 nM.

Turning to `Cc1ccc(-c2c(C)c3c(c(C)c2[C@H](OC(C)(C)C)C(=O)O)CCN(C2CCCC(C)(C)C2)C3)cc1` (stereo partly drawn) [Example 52, (2S)-2-(tert-butoxy)-2-(2-(3,3-dimethylcyclohexyl)-5,8-dimethyl-7-(p-tolyl)-1,2,3,4-tetrahydroisoquinolin-6-yl)acetic Acid], the half-inhibitory concentration (IC50) is 10 nM.

As to `Cc1ccc(-c2c(C)c3c(c(C)c2[C@H](OC(C)(C)C)C(=O)O)CCN(C(=O)CN2CCCCC2)C3)cc1` [Example 53, (S)-2-(tert-butoxy)-2-(5,8-dimethyl-2-(2-(piperidin-1-yl)acetyl)-7-(p-tolyl)-1,2,3,4-tetrahydroisoquinolin-6-yl)acetic Acid], the 50% inhibitory concentration (IC50) amounted to 807 nM.

Turning to `Cc1ccc(-c2c(C)c3c(c(C)c2[C@H](OC(C)(C)C)C(=O)O)CCN(CC(=O)N2CCCCC2)C3)cc1` [Example 54, (S)-2-(tert-butoxy)-2-(5,8-dimethyl-2-(2-oxo-2-(piperidin-1-yl)ethyl)-7-(p-tolyl)-1,2,3,4-tetrahydroisoquinolin-6-yl)acetic Acid], the IC50 was 309 nM.

Turning to `Cc1ccc(-c2c(C)c3c(c(C)c2[C@H](OC(C)(C)C)C(=O)O)CCN(Cc2ccccc2)C3)cc1` [Example 55, (S)-2-(2-benzyl-5,8-dimethyl-7-(p-tolyl)-1,2,3,4-tetrahydroisoquinolin-6-yl)-2-(tert-butoxy)acetic Acid], the 50% inhibitory concentration (IC50) worked out at 349 nM.

With `Cc1ccc(-c2c(C)c3c(c(C)c2[C@H](OC(C)(C)C)C(=O)O)CCN(C2CCC(F)(F)CC2)C3)cc1` [Example 56, (S)-2-(tert-butoxy)-2-(2-(4,4-difluorocyclohexyl)-5,8-dimethyl-7-(p-tolyl)-1,2,3,4-tetrahydroisoquinolin-6-yl)acetic Acid], the half-maximal inhibitory concentration (IC50) is 14 nM.

Take `Cc1ccc(-c2c(C)c3c(c(C)c2[C@H](OC(C)(C)C)C(=O)O)CCN(S(=O)(=O)c2cccc(F)c2)C3)cc1` [Example 57, (S)-2-(tert-butoxy)-2-(2-((3-fluorophenyl)sulfonyl)-5,8-dimethyl-7-(p-tolyl)-1,2,3,4-tetrahydroisoquinolin-6-yl)acetic Acid]: the 50% inhibitory concentration (IC50) came to 292 nM.

Take `Cc1ccc(-c2c(C)c3c(c(C)c2[C@H](OC(C)(C)C)C(=O)O)CCN(S(=O)(=O)CC2CCCCC2)C3)cc1` [Example 58, (S)-2-(tert-butoxy)-2-(2-((cyclohexylmethyl)sulfonyl)-5,8-dimethyl-7-(p-tolyl)-1,2,3,4-tetrahydroisoquinolin-6-yl)acetic Acid]: the IC50 came to 284 nM.

Consider `Cc1ccc(-c2c(C)c3c(c(C)c2[C@H](OC(C)(C)C)C(=O)O)CCN(C2CCC4CCC2C4)C3)cc1` (stereo partly drawn) [Example 60, (2S)-2-(2-(bicyclo[3.2.1]octan-2-yl)-5,8-dimethyl-7-(p-tolyl)-1,2,3,4-tetrahydroisoquinolin-6-yl)-2-(tert-butoxy)acetic Acid], for which the IC50 stood at 5 nM.

In the case of `Cc1ccc(-c2c(C)c3c(c(C)c2[C@H](OC(C)(C)C)C(=O)O)CCN(C2CCC2)C3)cc1` [Example 61, (S)-2-(tert-butoxy)-2-(2-cyclobutyl-5,8-dimethyl-7-(p-tolyl)-1,2,3,4-tetrahydroisoquinolin-6-yl)acetic Acid], the half-maximal inhibitory concentration (IC50) amounted to 141 nM.

As to `Cc1ccc(-c2c(C)c3c(c(C)c2[C@H](OC(C)(C)C)C(=O)O)CCN(S(=O)(=O)CC(C)(C)C)C3)cc1` [Example 62, (S)-2-(tert-butoxy)-2-(5,8-dimethyl-2-(neopentylsulfonyl)-7-(p-tolyl)-1,2,3,4-tetrahydroisoquinolin-6-yl)acetic Acid], the half-inhibitory concentration (IC50) amounted to 11 nM.

Turning to `Cc1ccc(-c2c(C)c3c(c(C)c2[C@H](OC(C)(C)C)C(=O)O)CCN(S(=O)(=O)NC2CCCCC2)C3)cc1` [Example 63, (S)-2-(tert-butoxy)-2-(2-(N-cyclohexylsulfamoyl)-5,8-dimethyl-7-(p-tolyl)-1,2,3,4-tetrahydroisoquinolin-6-yl)acetic Acid], the IC50 came out at 119 nM.

On to `COc1c(F)cccc1S(=O)(=O)N1CCc2c(C)c([C@H](OC(C)(C)C)C(=O)O)c(-c3ccc(C)cc3)c(C)c2C1` [Example 64, (S)-2-(tert-butoxy)-2-(2-((3-fluoro-2-methoxyphenyl)sulfonyl)-5,8-dimethyl-7-(p-tolyl)-1,2,3,4-tetrahydroisoquinolin-6-yl)acetic Acid], for which the 50% inhibitory concentration (IC50) was 89 nM.

Consider `Cc1ccc(-c2c(C)c3c(c(C)c2[C@H](OC(C)(C)C)C(=O)O)CCN(S(=O)(=O)C2CCCC2)C3)cc1` [Example 65, (S)-2-(tert-butoxy)-2-(2-(cyclopentylsulfonyl)-5,8-dimethyl-7-(p-tolyl)-1,2,3,4-tetrahydroisoquinolin-6-yl)acetic Acid], for which the IC50 is 12 nM.

Turning to `Cc1ccc(-c2c(C)c3c(c(C)c2[C@H](OC(C)(C)C)C(=O)O)CCN(S(=O)(=O)C(C)C)C3)cc1` [Example 66, (S)-2-(tert-butoxy)-2-(2-(isopropylsulfonyl)-5,8-dimethyl-7-(p-tolyl)-1,2,3,4-tetrahydroisoquinolin-6-yl)acetic Acid], the IC50 turned out to be 48 nM.

As to `Cc1ccc(-c2c(C)c3c(c(C)c2[C@H](OC(C)(C)C)C(=O)O)CCN(S(=O)(=O)C2CCCCCC2)C3)cc1` [Example 68, (S)-2-(tert-butoxy)-2-(2-(cycloheptylsulfonyl)-5,8-dimethyl-7-(p-tolyl)-1,2,3,4-tetrahydroisoquinolin-6-yl)acetic Acid], the half-inhibitory concentration (IC50) turned out to be 50 nM.

Turning to `Cc1ccc(-c2c(C)c3c(c(C)c2[C@H](OC(C)(C)C)C(=O)O)CCN(C2CCCCCCC2)C3)cc1` [Example 69, (S)-2-(tert-butoxy)-2-(2-cyclooctyl-5,8-dimethyl-7-(p-tolyl)-1,2,3,4-tetrahydroisoquinolin-6-yl)acetic Acid], the IC50 turned out to be 6 nM.

Regarding `Cc1ccc(-c2c(C)c3c(c(C)c2[C@H](OC(C)(C)C)C(=O)O)CCN(C(C)C2CCCCC2)C3)cc1` (stereo partly drawn) [Example 70, (2S)-2-(tert-butoxy)-2-(2-(1-cyclohexylethyl)-5,8-dimethyl-7-(p-tolyl)-1,2,3,4-tetrahydroisoquinolin-6-yl)acetic Acid], the concentration for half-maximal inhibition (IC50) came out at 130 nM.

`Cc1ccc(-c2c(C)c3c(c(C)c2[C@H](OC(C)(C)C)C(=O)O)CCN(C2CCC[C@@H](C)C2)C3)cc1` (stereo partly drawn) [Example 72, (2S)-2-(tert-butoxy)-2-(5,8-dimethyl-2-((3R)-3-methylcyclohexyl)-7-(p-tolyl)-1,2,3,4-tetrahydroisoquinolin-6-yl)acetic Acid]: the IC50 worked out at 23 nM.

As for `Cc1ccc(-c2c(C)c3c(c(C)c2[C@H](OC(C)(C)C)C(=O)O)CCN(C2CC[C@@H](C)C2)C3)cc1` (stereo partly drawn) [Example 73, (2S)-2-(tert-butoxy)-2-(5,8-dimethyl-2-((3R)-3-methylcyclopentyl)-7-(p-tolyl)-1,2,3,4-tetrahydroisoquinolin-6-yl)acetic Acid], the IC50 was determined as 42 nM.

For the molecule `Cc1ccc(-c2c(C)c3c(c(C)c2[C@H](OC(C)(C)C)C(=O)O)CCN(C2CC4CCC(C4)C2)C3)cc1` (stereo partly drawn) [Example 74, (2S)-2-(2-(bicyclo[3.2.1]octan-3-yl)-5,8-dimethyl-7-(p-tolyl)-1,2,3,4-tetrahydroisoquinolin-6-yl)-2-(tert-butoxy)acetic Acid], the half-maximal inhibitory concentration (IC50) worked out at 12 nM.
